According to patent US20250115597A1, “TYK2 INHIBITORS AND COMPOSITIONS AND METHODS THEREOF” (LYNK PHARMACEUTICALS CO. LTD., priority 2021, published 2025):
Read-outs that look alike come from different tables or passages of the source.

Tests used:
TYK2-JH2 domain = target: T1, TYK2-JH2 domain (Homo sapiens, UniProt P29597); test: Binding activity test for JH2 domain of TYK2 (Tb-antibody/tracer FRET); settings: for JAK1/TYK2 selectivity: ratio JAK1-JH2 IC50 / TYK2-JH2 IC50
T1 construct: IC50 on JH2 domain activity (nM)
T1 sequence (P29597 589-875 limits assumed): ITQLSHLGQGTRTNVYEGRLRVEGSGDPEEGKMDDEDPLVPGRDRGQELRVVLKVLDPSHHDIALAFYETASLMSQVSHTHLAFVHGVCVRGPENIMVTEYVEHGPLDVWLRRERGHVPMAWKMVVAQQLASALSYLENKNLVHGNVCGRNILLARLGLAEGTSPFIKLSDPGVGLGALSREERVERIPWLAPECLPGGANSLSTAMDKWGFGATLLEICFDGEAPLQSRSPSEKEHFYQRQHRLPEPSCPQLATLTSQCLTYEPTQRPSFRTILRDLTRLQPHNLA
Protocol: (§1) Binding Activity Test for […] Domain of JAK1 and TYK2 The compounds are prepared in DMSO for 200× top dose, then serial dilute it with 27-fold for 3 more points. Add 8 μL/well in echo source plate, echo will add 75 nL/well with 3-fold serial dilution for 11 points in assay plate. 75 nL DMSO for high control and low control. […] For low control, add 5 μL/well assay buffer. And then spin down at 1000 rpm and centrifuge for 30 seconds. After enzyme system prepared, add 5 μL of Tb-antibody solution into each wells of assay plate. Spin down at 1000 rpm and centrifuge for 30 sec. After Tb-antibody added, also add 5 μL of tracer into the assay plate. Spin down at 1000 rpm and centrifuge for 30 sec. Incubate for 60 mins at 25° C. firstly and then continue to incubate the plate at 4° C. overnight. Read by envision in FRET mode. The Luminescence value was recorded by a multi-label reader Envision (PerkinElmer).

JAK1-JH2 domain = target: T2, JAK1-JH2 domain (Homo sapiens, UniProt P23458); test: Binding activity test for JH2 domain of JAK1 (Tb-antibody/tracer FRET)
T2 construct: IC50 on JH2 domain activity (nM)
T2 sequence (P23458 583-855 limits assumed): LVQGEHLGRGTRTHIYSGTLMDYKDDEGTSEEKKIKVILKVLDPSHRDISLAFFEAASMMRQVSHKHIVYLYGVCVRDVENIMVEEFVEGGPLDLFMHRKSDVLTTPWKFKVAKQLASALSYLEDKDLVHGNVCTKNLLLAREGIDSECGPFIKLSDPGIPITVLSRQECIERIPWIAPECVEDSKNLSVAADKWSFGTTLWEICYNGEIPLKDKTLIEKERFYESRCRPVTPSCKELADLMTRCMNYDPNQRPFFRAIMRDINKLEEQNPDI
Protocol: as §1

[1] = target: T3, Ba/F3-FL-TYK2-P760L cells (Homo sapiens, UniProt P29597, P760L, cells depend on it); test: Anti-proliferative assay, Ba/F3-FL-TYK2-P760L cells (Cell-Titer Glo); type: cell-based; settings: 72 h, read-out: BaF3-FL-T2P760L IC50
T3 construct: BaF3-FL-T2P760L (nM)
T3 sequence (P29597 whole entry P760L): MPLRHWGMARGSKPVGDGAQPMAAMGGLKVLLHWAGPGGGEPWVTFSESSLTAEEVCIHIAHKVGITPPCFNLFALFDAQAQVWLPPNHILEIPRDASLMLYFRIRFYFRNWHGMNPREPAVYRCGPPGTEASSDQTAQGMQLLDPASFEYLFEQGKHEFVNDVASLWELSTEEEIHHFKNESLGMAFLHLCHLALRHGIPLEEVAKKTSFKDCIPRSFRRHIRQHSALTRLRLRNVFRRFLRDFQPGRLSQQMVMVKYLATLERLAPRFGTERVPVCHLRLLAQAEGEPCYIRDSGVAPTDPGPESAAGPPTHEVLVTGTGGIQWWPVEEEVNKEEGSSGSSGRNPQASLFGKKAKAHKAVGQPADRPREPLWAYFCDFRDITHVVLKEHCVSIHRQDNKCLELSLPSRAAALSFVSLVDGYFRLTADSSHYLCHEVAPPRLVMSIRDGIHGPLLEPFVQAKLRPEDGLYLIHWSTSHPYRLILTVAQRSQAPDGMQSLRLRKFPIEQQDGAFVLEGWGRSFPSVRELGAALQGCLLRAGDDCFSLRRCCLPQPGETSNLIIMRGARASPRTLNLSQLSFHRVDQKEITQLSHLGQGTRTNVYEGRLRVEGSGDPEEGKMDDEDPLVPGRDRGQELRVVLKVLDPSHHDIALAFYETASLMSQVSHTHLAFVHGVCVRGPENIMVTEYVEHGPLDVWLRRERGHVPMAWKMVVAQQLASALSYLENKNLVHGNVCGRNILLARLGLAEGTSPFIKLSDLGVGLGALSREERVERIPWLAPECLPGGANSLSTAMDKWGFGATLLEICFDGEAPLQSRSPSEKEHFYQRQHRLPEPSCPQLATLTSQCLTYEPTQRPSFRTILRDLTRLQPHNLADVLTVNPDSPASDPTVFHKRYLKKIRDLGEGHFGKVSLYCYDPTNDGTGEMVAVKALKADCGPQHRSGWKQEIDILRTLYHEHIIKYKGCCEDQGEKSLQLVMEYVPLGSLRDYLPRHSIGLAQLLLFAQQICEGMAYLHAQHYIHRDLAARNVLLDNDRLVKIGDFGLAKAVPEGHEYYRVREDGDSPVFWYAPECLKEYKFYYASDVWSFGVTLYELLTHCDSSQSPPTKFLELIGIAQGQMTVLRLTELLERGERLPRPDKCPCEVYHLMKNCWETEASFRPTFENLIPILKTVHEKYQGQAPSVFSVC
Summary of the method: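 Ba/F3 cells made IL-3-independent by TEL-fused or full-length mutant JAK-family kinases, seeded at 2000/well and dosed after 24 h with 9 three-fold dilutions topping at 20 μM. Viability after 72 h at 37 °C, 5% CO2 by Cell-Titer Glo ATP luminescence.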

[2] = Microsomal metabolic stability assay; type: in vitro ADME; settings: pH 7.4, 0.5 mg/mL protein, 1 μM compound
Summary of the method: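 Test article at 1 μM with 0.5 mg/mL microsomal protein and 2 mM NADPH, in 100 mM potassium phosphate pH 7.4 with 1.0 mM EDTA at 37 °C. Sampled at 0–45 min and quantified by LC/MS/MS. T1/2 from the slope of ln % remaining vs time.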

[3] = dog liver microsomes, read-out: Dog LM Clint
[4] = dog liver microsomes, read-out: Dog LM T½
[5] = human liver microsomes, read-out: Human LM Clint
[6] = human liver microsomes, read-out: Human LM T½
[7] = rat liver microsomes, read-out: Rat LM Clint
[8] = rat liver microsomes, read-out: Rat LM T½

| IC50 (TYK2-JH2 domain) [nM] | JAK1/TYK2 selectivity (TYK2-JH2 domain) | IC50 (JAK1-JH2 domain) [nM] | GI50 [1] [nM] | microsomal CLint at 1 μM [2, 3] [µL/min/mg] | half-life at 1 μM [2, 4] [h] | microsomal CLint at 1 μM [2, 5] [µL/min/mg] | half-life at 1 μM [2, 6] [h] | microsomal CLint at 1 μM [2, 7] [µL/min/mg] | half-life at 1 μM [2, 8] [h] | SMILES |
| --- | --- | --- | --- | --- | --- | --- | --- | --- | --- | --- |
| 0.166 | 16.1 | 2.68 | 28.4 | – | – | – | – | – | – | [2H]C([2H])([2H])NC(=O)c1cnc(Nc2ccc(N3CCOCC3)cn2)cc1Nc1ccc2cnn(CC)c2c1OC [Example 273, 4-((1-Ethyl-7-methoxy-1H-indazol-6-yl)amino)-N-(methyl-d3)-6-((5-morpholinopyridin-2-yl)amino)nicotinamide] |
| 0.4 | – | – | 42.1 | 11.4 | 2.02 | 6.45 | 3.58 | 47.1 | 0.49 | [2H]C([2H])([2H])NC(=O)c1nnc2cc1Nc1cc(cc(-c3ncn(C)n3)c1OC)COCc1cccc(n1)N2 [Example 68, 10-Methoxy-N-(methyl-d3)-11-(1-methyl-1H-1,2,4-triazol-3-yl)-15-oxa-2,4,5,8,21-pentaazatetracyclo[15.3.1.1^{3,7}.1^{9,13}]tricosa-1(21),3,5,7(23),9(22),10,12,17,19-nonaene-6-carboxamide] |
| 0.887 | – | – | 374 | < 18.6 | > 3.1 | 28.6 | 1.53 | 49.5 | 0.794 | [2H]C([2H])([2H])NC(=O)c1cnc(NC(=O)C2CC2)cc1Nc1cn(C)c2ccn(CC)c(=O)c12 [Example 100, 6-(Cyclopropanecarbonylamino)-4-[(5-ethyl-1-methyl-4-oxo-pyrrolo[3,2-c]pyridin-3-yl)amino]-N-(methyl-d3)pyridine-3-carboxamide] |
| 4.03 | – | – | 78.3 | 14.7 | 1.57 | 69.3 | 0.333 | 46.4 | 0.498 | [2H]C([2H])([2H])NC(=O)c1cnc(NC(=O)C2CC2)cc1Nc1cn(C)c2ccn(C(C)C(F)(F)F)c(=O)c12 (stereo not drawn) [Example 190, 6-(Cyclopropanecarboxamido)-N-(methyl-d3)-4-((1-methyl-4-oxo-5-(1,1,1-trifluoropropan-2-yl)-4,5-dihydro-1H-pyrrolo[3,2-c]pyridin-3-yl)amino)nicotinamide] |
| 11.6 | 21.60 | 252 | – | – | – | – | – | – | – | [2H]C([2H])([2H])NC(=O)c1cnc(NC(=O)C2CC2)cc1Nc1cn(CC)c2ncn([C@@H](C)C(F)(F)F)c(=O)c12 (single isomer, unassigned) [Example 254B, (S*)-6-(cyclopropanecarboxamido)-4-((7-ethyl-4-oxo-3-(1,1,1-trifluoropropan-2-yl)-4,7-dihydro-3H-pyrrolo[2,3-d]pyrimidin-5-yl)amino)-N-(methyl-d3)nicotinamide] |
| 0.92 | – | – | 102 | 15.9 | 1.45 | 48.8 | 0.473 | 73 | 0.316 | [2H]C([2H])([2H])NC(=O)c1cnc(NC(=O)C2CC2)cc1Nc1cn(C)c2ccn(CC(F)(F)F)c(=O)c12 [Example 110, 6-(Cyclopropanecarboxamido)-N-(methyl-d3)-4-((1-methyl-4-oxo-5-(2,2,2-trifluoroethyl)-4,5-dihydro-1H-pyrrolo[3,2-c]pyridin-3-yl)amino)nicotinamide] |
| 0.868 | 50.81 | 44.1 | – | 4.66 | 4.95 | 23 | 1 | 39.4 | 0.586 | [2H]C([2H])([2H])NC(=O)c1cnc(NC(=O)C2CC2)cc1Nc1cn(CC)c2ncn([C@H](C)C(F)(F)F)c(=O)c12 (single isomer, unassigned) [Example 254A, (R*)-6-(cyclopropanecarboxamido)-4-((7-ethyl-4-oxo-3-(1,1,1-trifluoropropan-2-yl)-4,7-dihydro-3H-pyrrolo[2,3-d]pyrimidin-5-yl)amino)-N-(methyl-d3)nicotinamide] |
| 5.78 | 42.2 | 244 | – | – | – | – | – | – | – | [2H]C([2H])([2H])NC(=O)c1cnc(NC(=O)C2CC2)cc1Nc1cn(C)c2ncn([C@@H](C)C(F)(F)F)c(=O)c12 (single isomer, unassigned) [Example 234B, (S*)-6-(cyclopropanecarboxamido)-N-(methyl-d3)-4-((7-methyl-4-oxo-3-(1,1,1-trifluoropropan-2-yl)-4,7-dihydro-3H-pyrrolo[2,3-d]pyrimidin-5-yl)amino)nicotinamide] |
| 1.41 | – | – | 368 | 11.2 | 2.06 | 10.8 | 2.14 | 53.8 | 0.43 | [2H]C([2H])([2H])NC(=O)c1cnc(NC(=O)C2CC2)cc1Nc1cn(CCOC)c2ccn(CC)c(=O)c12 [Example 193, 6-(Cyclopropanecarboxamido)-4-((5-ethyl-1-(2-methoxyethyl)-4-oxo-4,5-dihydro-1H-pyrrolo[3,2-c]pyridin-3-yl)amino)-N-(methyl-d3)nicotinamide] |
| 5.21 | – | – | > 5000 | – | – | – | – | – | – | [2H]C([2H])([2H])NC(=O)c1cnc(NC(=O)C2CC2)cc1Nc1ccn2cnc(CC)c2c1OC [Example 57, 6-(Cyclopropanecarboxamido)-4-((1-ethyl-8-methoxyimidazo[1,5-a]pyridin-7-yl)amino)-N-(methyl-d3)nicotinamide] |
| 0.18 | – | – | 40.2 | – | – | – | – | – | – | [2H]C([2H])([2H])NC(=O)c1cnc(NC(=O)C2CC2)cc1Nc1ncn2ncc(CC)c2c1OC [Example 280, 6-(Cyclopropanecarboxamido)-4-((3-ethyl-4-methoxypyrazolo[1,5-c]pyrimidin-5-yl)amino)-N-(methyl-d3)nicotinamide] |
| 69.2 | – | – | > 5000 | – | – | – | – | – | – | [2H]C([2H])([2H])NC(=O)c1cnc(NC(=O)C2CC2)cc1Nc1cnc2cnn(CC)c2c1OC [Example 265, 6-(Cyclopropanecarboxamido)-4-((1-ethyl-7-methoxy-1H-pyrazolo[4,3-b]pyridin-6-yl)amino)-N-(methyl-d3)nicotinamide] |
| 1.58 | – | – | 1700 | – | – | – | – | – | – | [2H]C([2H])([2H])NC(=O)c1cnc(NC(=O)C2CC2)cc1Nc1ccc2nn(C)c(CC)c2c1OC [Example 232, 6-(Cyclopropanecarboxamido)-4-((3-ethyl-4-methoxy-2-methyl-2H-indazol-5-yl)amino)-N-(methyl-d3)nicotinamide] |
| 1.87 | – | – | 231 | – | – | – | – | – | – | [2H]C([2H])([2H])NC(=O)c1cnc(NC(=O)C2CC2)cc1Nc1ccc2c(c(CC)nn2C)c1OC [Example 150, 6-(Cyclopropanecarboxamido)-4-((3-ethyl-4-methoxy-1-methyl-1H-indazol-5-yl)amino)-N-(methyl-d3)nicotinamide] |
| 1.19 | – | – | 145 | 16.8 | 1.38 | 31.6 | 0.732 | 38.9 | 0.595 | [2H]C([2H])([2H])NC(=O)c1cnc(Nc2ccn(C)n2)cc1Nc1ccc2cnn(C([2H])([2H])[2H])c2c1OC [Example 154, 4-((7-Methoxy-1-(methyl-d3)-1H-indazol-6-yl)amino)-N-(methyl-d3)-6-((1-methyl-1H-pyrazol-3-yl)amino)nicotinamide] |
| 0.33 | – | – | 70.1 | – | – | – | – | – | – | [2H]C([2H])([2H])NC(=O)c1cnc(NC(=O)C2CC2)cc1Nc1ncn2ncc(C)c2c1OC [Example 279, 6-(Cyclopropanecarboxamido)-4-((4-methoxy-3-methylpyrazolo[1,5-c]pyrimidin-5-yl)amino)-N-(methyl-d3)nicotinamide] |
| 34.4 | – | – | > 5000 | – | – | – | – | – | – | [2H]C([2H])([2H])NC(=O)c1cnc(NC(=O)C2CC2)cc1Nc1ccc2cnn(CCN(C)C)c2c1OC [Example 274, 6-(Cyclopropanecarboxamido)-4-((1-(2-(dimethylamino)ethyl)-7-methoxy-1H-indazol-6-yl)amino)-N-(methyl-d3)nicotinamide] |
